Data reported in patent US10681909B2, “Herbicidal triazoles” (FMC Corporation, priority 2014, dated 2020).

How the values were obtained:
Russian thistle = assay: Test D preemergence; format: in vivo, Salsola kali; conditions: for Plant response rating: Russian Thistle: scale 0 to 100
Text: (§1) Seeds of plant species selected from bluegrass (annual bluegrass, Poa annua), blackgrass (Alopecurus myosuroides), canarygrass (Phalaris minor), chickweed (common chickweed, Stellaria media), galium (catchweed bedstraw, Galium aparine), bromegrass, down (downy bromegrass, Bromus tectorum), Russian thistle (Salsola kali), field poppy (Papaver rhoeas), field violet (Viola arvensis), foxtail, green (green foxtail, Setaria viridis), deadnettle (henbit deadnettle, Lamium amplexicaule), ryegrass, Ital. (Italian ryegrass, Lolium multiflorum), kochia (Kochia scoparia), lambsquarters (Chenopodium album), oilseed rape (Brassica napus), pigweed (Amaranthus retroflexus), chamomile (scentless chamomile, Matricaria inodora), speedwell (bird's-eye speedwell, Veronica persica), barley, spring (spring barley, Hordeum vulgare), wheat, spring (spring wheat, Triticum aestivum), buckwheat, wild (wild buckwheat, Polygonum convolvulus), wild mustard (Sinapis arvensis), oat, wild (wild oat, Avena fatua), radish, wild (wild radish, Raphanus raphanistrum), […]), barley, winter (winter barley, Hordeum vulgare), and wheat, winter (winter wheat, Triticum aestivum) were planted into a silt loam soil and treated preemergence with test chemicals formulated in a non-phytotoxic solvent mixture which included a surfactant. At the same time, these species were planted in pots containing Sunshine Redi-Earth® planting medium comprising spaghnum peat moss, vermiculite, starter nutrients and dolomitic limestone and treated with postemergence applications of the test chemicals formulated in the same manner. Plants ranged in height from 2 to 18 cm (1- to 4-leaf stage). Treated plants and controls were maintained in a controlled growth environment for 14 to 21 d after which time all species were compared to controls and visually evaluated. […] A dash (-) response means no test result.

lambsquarters = assay: Test D postemergence; format: in vivo, Chenopodium album; conditions: scale 0 to 100
Text: as §1

galium = assay: Test A postemergence; format: in vivo, Galium aparine; conditions: 0 to 100 scale (0 no effect, 100 complete control), approx. 10 d
Method in brief: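 Seeds sown in loam soil–sand blend received a directed preemergence soil spray of test chemical in non-phytotoxic solvent with surfactant; postemergence plants, 2 to 10 cm at one- to two-leaf stage, were sprayed with the same formulation. Injury visually rated versus untreated controls after ~10 d in greenhouse, 0–100 scale.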

barley, winter = assay: Test D preemergence; format: in vivo, Hordeum vulgare; conditions: for Plant response rating: Barley, Winter: scale 0 to 100
Text: as §1

barley, spring = assay: Test D preemergence; format: in vivo, Hordeum vulgare; conditions: for Plant response rating: Barley, Spring: scale 0 to 100
Text: as §1

bromegrass, down [1] = assay: Test D postemergence; format: in vivo, Bromus tectorum; conditions: scale 0 to 100
Text: as §1

radish, wild [2] = assay: Test D preemergence; format: in vivo, Raphanus raphanistrum; conditions: scale 0 to 100
Text: as §1

bromegrass, down [3] = assay: Test D preemergence; format: in vivo, Bromus tectorum; conditions: for Plant response rating: Bromegrass, Down: scale 0 to 100
Text: as §1

speedwell = assay: Test D preemergence; format: in vivo, Veronica persica; conditions: for Plant response rating: Speedwell: scale 0 to 100
Text: as §1

radish, wild [4] = assay: Test D postemergence; format: in vivo, Raphanus raphanistrum; conditions: scale 0 to 100
Text: as §1

johnsongrass = assay: Test C preemergence; format: in vivo, Sorghum halepense; conditions: for Plant response rating (scale of 0 to 100 where 0 is no effect and 100 is complete control): Johnsongrass, preemergence; for Johnsongrass plant response rating (0 to 100): Preemergence, visual rating after 13 to 15 d
Text: (§2) Seeds of plant species selected from blackgrass (Alopecurus myosuroides), ryegrass, Italian (Italian ryegrass, Lolium multiflorum), wheat (winter wheat, Triticum aestivum), galium (catchweed bedstraw, Galium aparine), corn (Zea mays), crabgrass, large (large crabgrass, Digitaria sanguinalis), foxtail, giant, (giant foxtail, Setaria faberii), johnsongrass (Sorghum halepense), lambsquarters (Chenopodium album), morningglory (Ipomoea coccinea), nutsedge, yellow (yellow nutsedge, Cyperus esculentus), pigweed (Amaranthus retroflexus), ragweed (common ragweed, Ambrosia elatior), soybean (Glycine max), barnyardgrass (Echinochloa crus-galli), oilseed rape (Brassica napus), waterhemp (common waterhemp, Amaranthus rudis), and velvetleaf (Abutilon theophrasti) were planted into a blend of loam soil and sand and treated preemergence with test chemicals formulated in a non-phytotoxic solvent mixture which included a surfactant. At the same time, plants selected from these crop and weed species and also chickweed (common chickweed, Stellaria media), oat, wild (wild oat, Avena fatua), and kochia (Kochia scoparia), were planted in pots containing Sunshine Redi-Earth® planting medium comprising spaghnum peat moss, vermiculite, starter nutrients and dolomitic limestone and treated with postemergence applications of test chemicals formulated in the same manner. Plants ranged in height from 2 to 18 cm (1- to 4-leaf stage) for postemergence treatments. […] A dash (-) response means no test result.

foxtail, giant = assay: Test C preemergence; format: in vivo, Setaria faberii; conditions: for Plant response rating (scale of 0 to 100 where 0 is no effect and 100 is complete control): Foxtail, Giant, preemergence; for Foxtail, Giant plant response rating (0 to 100): Preemergence, visual rating after 13 to 15 d
Text: as §2

soybean = assay: Test C preemergence; format: in vivo, Glycine max; conditions: for Soybean plant response rating (0 to 100): Preemergence, visual rating after 13 to 15 d
Text: as §2

[5] = 16 g ai/ha, 0 is no effect, 100 is complete control

With `COc1nc(-c2ccc(Cl)cc2)nn1Cc1ccnc(C(F)(F)F)c1` [Compound 28] the “Plant response rating (0 to 100), Russian Thistle” value (Russian thistle; [5]) was 70, the “Plant response rating: Russian Thistle” value (Russian thistle; 62 g ai/ha) was 85 and the “Plant response rating: Russian Thistle” value (Russian thistle; 125 g ai/ha) was 85. The “Plant response rating: Lambsquarters” value (lambsquarters; 16 g ai/ha) was 75, the “Plant response rating: Lambsquarters” value (lambsquarters; 31 g ai/ha) was 90 and the “Plant response rating: Lambsquarters” value (lambsquarters; 62 g ai/ha) was 85. For the same molecule, the “Plant response rating: Lambsquarters” value (lambsquarters; 125 g ai/ha) was 95, the “Plant response rating, Galium” value (galium; 125 g ai/ha) was 50 and the “Plant response rating, Galium” value (galium; 500 g ai/ha) was 80. For the same molecule, the “Plant response rating (0 to 100), Barley, Winter” value (barley, winter; [5]) was 10, the “Plant response rating: Barley, Winter” value (barley, winter; 31 g ai/ha) was 15 and the “Plant response rating: Barley, Winter” value (barley, winter; 62 g ai/ha) was 20. The “Plant response rating: Barley, Winter” value (barley, winter; 125 g ai/ha) was 25, the “Plant response rating (0 to 100), Barley, Spring” value (barley, spring; [5]) was 15 and the “Plant response rating: Barley, Spring” value (barley, spring; 31 g ai/ha) was 20. For the same molecule, the “Plant response rating: Barley, Spring” value (barley, spring; 62 g ai/ha) was 20, the “Plant response rating: Barley, Spring” value (barley, spring; 125 g ai/ha) was 25 and the “Plant response rating: Bromegrass, Down” value (bromegrass, down [1]; 16 g ai/ha) was 20. For the same molecule, the “Plant response rating: Bromegrass, Down” value (bromegrass, down [1]; 31 g ai/ha) was 20, the “Plant response rating: Bromegrass, Down” value (bromegrass, down [1]; 62 g ai/ha) was 25 and the “Plant response rating: Bromegrass, Down” value (bromegrass, down [1]; 125 g ai/ha) was 35. For the same molecule, the “Plant response rating: Radish, Wild” value (radish, wild [2]; 62 g ai/ha) was 60, the “Plant response rating: Radish, Wild” value (radish, wild [2]; 125 g ai/ha) was 80 and the “Plant response rating (0 to 100), Bromegrass, Down” value (bromegrass, down [3]; [5]) was 35. The “Plant response rating: Bromegrass, Down” value (bromegrass, down [3]; 31 g ai/ha) was 40, the “Plant response rating: Bromegrass, Down” value (bromegrass, down [3]; 62 g ai/ha) was 45 and the “Plant response rating: Bromegrass, Down” value (bromegrass, down [3]; 125 g ai/ha) was 45. For the same molecule, the “Plant response rating (0 to 100), Speedwell” value (speedwell; [5]) was 75, the “Plant response rating: Speedwell” value (speedwell; 62 g ai/ha) was 100 and the “Plant response rating: Speedwell” value (speedwell; 125 g ai/ha) was 100. The “Plant response rating: Radish, Wild” value (radish, wild [4]; 16 g ai/ha) was 85, the “Plant response rating: Radish, Wild” value (radish, wild [4]; 31 g ai/ha) was 95 and the “Plant response rating: Radish, Wild” value (radish, wild [4]; 62 g ai/ha) was 95. The “Plant response rating: Radish, Wild” value (radish, wild [4]; 125 g ai/ha) was 100.
For `CCc1nc(-c2ccc(C(F)(F)F)cc2)nn1Cc1ccnc(C(F)(F)F)c1` [Compound 1, 4-[[5-ethyl-3-[4-(trifluoromethyl)phenyl]-1H-1,2,4-triazol-1-yl]methyl]-2-(trifluoromethyl)pyridine], the “Plant response rating: Lambsquarters” value (lambsquarters; 31 g ai/ha) was 75, the “Plant response rating: Lambsquarters” value (lambsquarters; 62 g ai/ha) was 80 and the “Plant response rating: Lambsquarters” value (lambsquarters; 125 g ai/ha) was 85. For the same molecule, the “Plant response rating: Lambsquarters” value (lambsquarters; 250 g ai/ha) was 90, the “Plant response rating: Barley, Winter” value (barley, winter; 31 g ai/ha) was 0 and the “Plant response rating: Barley, Winter” value (barley, winter; 62 g ai/ha) was 5. The “Plant response rating: Barley, Winter” value (barley, winter; 125 g ai/ha) was 10, the “Plant response rating: Barley, Winter” value (barley, winter; 250 g ai/ha) was 20 and the “Plant response rating: Barley, Spring” value (barley, spring; 31 g ai/ha) was 0. The “Plant response rating: Barley, Spring” value (barley, spring; 62 g ai/ha) was 0, the “Plant response rating: Barley, Spring” value (barley, spring; 125 g ai/ha) was 0 and the “Plant response rating: Barley, Spring” value (barley, spring; 250 g ai/ha) was 5. The “Plant response rating: Bromegrass, Down” value (bromegrass, down [1]; 31 g ai/ha) was 15, the “Plant response rating: Bromegrass, Down” value (bromegrass, down [1]; 62 g ai/ha) was 20 and the “Plant response rating: Bromegrass, Down” value (bromegrass, down [1]; 125 g ai/ha) was 25. For the same molecule, the “Plant response rating: Bromegrass, Down” value (bromegrass, down [1]; 250 g ai/ha) was 35, the “Plant response rating: Radish, Wild” value (radish, wild [2]; 62 g ai/ha) was 100 and the “Plant response rating: Radish, Wild” value (radish, wild [2]; 125 g ai/ha) was 100. For the same molecule, the “Plant response rating: Radish, Wild” value (radish, wild [2]; 250 g ai/ha) was 100, the “Plant response rating (scale of 0 to 100 where 0 is no effect and 100 is complete control)” value (johnsongrass; 125 g ai/ha) was 55 and the “Plant response rating (scale of 0 to 100 where 0 is no effect and 100 is complete control)” value (johnsongrass; 250 g ai/ha) was 80. The “Johnsongrass plant response rating (0 to 100)” value (johnsongrass; 31 g ai/ha) was 25, the “Johnsongrass plant response rating (0 to 100)” value (johnsongrass; 62 g ai/ha) was 35 and the “Plant response rating (scale of 0 to 100 where 0 is no effect and 100 is complete control)” value (foxtail, giant; 125 g ai/ha) was 100. For the same molecule, the “Plant response rating (scale of 0 to 100 where 0 is no effect and 100 is complete control)” value (foxtail, giant; 250 g ai/ha) was 100, the “Foxtail, Giant plant response rating (0 to 100)” value (foxtail, giant; 31 g ai/ha) was 98 and the “Foxtail, Giant plant response rating (0 to 100)” value (foxtail, giant; 62 g ai/ha) was 98. The “Soybean plant response rating (0 to 100)” value (soybean; 31 g ai/ha) was 0, the “Soybean plant response rating (0 to 100)” value (soybean; 62 g ai/ha) was 5 and the “Plant response rating (scale of 0 to 100 where 0 is no effect and 100 is complete control)” value (soybean; Soybean, preemergence, 250 g ai/ha) was 20. For the same molecule, the “Plant response rating: Bromegrass, Down” value (bromegrass, down [3]; 31 g ai/ha) was 0, the “Plant response rating: Bromegrass, Down” value (bromegrass, down [3]; 62 g ai/ha) was 0 and the “Plant response rating: Bromegrass, Down” value (bromegrass, down [3]; 125 g ai/ha) was 10. For the same molecule, the “Plant response rating: Bromegrass, Down” value (bromegrass, down [3]; 250 g ai/ha) was 10, the “Plant response rating: Speedwell” value (speedwell; 62 g ai/ha) was 100 and the “Plant response rating: Speedwell” value (speedwell; 125 g ai/ha) was 100. For the same molecule, the “Plant response rating: Speedwell” value (speedwell; 250 g ai/ha) was 100, the “Plant response rating: Radish, Wild” value (radish, wild [4]; 31 g ai/ha) was 75 and the “Plant response rating: Radish, Wild” value (radish, wild [4]; 62 g ai/ha) was 100. The “Plant response rating: Radish, Wild” value (radish, wild [4]; 125 g ai/ha) was 95 and the “Plant response rating: Radish, Wild” value (radish, wild [4]; 250 g ai/ha) was 95.
